Experiments:
[1] = target: T1, Serine/threonine-protein kinase Chk1 (Homo sapiens, UniProt O14757); assay: CHK1 Inhibition Assay; details: pH 7.4; 22 °C
T1 sequence (O14757 whole entry): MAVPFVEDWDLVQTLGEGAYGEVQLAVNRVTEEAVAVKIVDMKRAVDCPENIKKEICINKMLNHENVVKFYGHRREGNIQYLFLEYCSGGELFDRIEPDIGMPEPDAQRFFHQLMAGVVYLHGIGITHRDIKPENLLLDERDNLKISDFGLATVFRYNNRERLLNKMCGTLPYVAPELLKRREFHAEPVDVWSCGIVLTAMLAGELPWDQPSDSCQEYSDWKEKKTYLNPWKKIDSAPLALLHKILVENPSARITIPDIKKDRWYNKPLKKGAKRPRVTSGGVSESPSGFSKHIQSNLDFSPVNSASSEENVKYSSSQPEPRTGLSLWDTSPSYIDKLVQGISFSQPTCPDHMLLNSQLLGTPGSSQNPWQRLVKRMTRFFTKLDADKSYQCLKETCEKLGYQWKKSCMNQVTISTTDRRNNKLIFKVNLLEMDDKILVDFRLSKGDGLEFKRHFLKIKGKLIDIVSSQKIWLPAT
From the text: The inhibitors reported in this study bind to CHK1 according to a general mechanism illustrated in Scheme 1 where E, S, and I stand for enzyme, substrate and inhibitor using Caliper LC-3000 instrument (Caliper Life Science).

[2] = target: T1, Serine/threonine-protein kinase Chk1; assay: Surface Plasmon Resonance BindingAssay; details: pH 8; 20 °C
Protocol: Surface plasmon resonance (SPR) biosensor binding studies were conducted using a Biacore 3000 instrument (GE Healtchare).

Ki [1] [nM] | Ki [2] [nM] | SMILES
1.75 | 5.14 | O=C1NN=Cc2c(C(=O)N3C[C@@H](O)[C@@H](O)C3)[nH]c3cc(NC(=O)C4C[C@H]4c4ccccc4)cc1c23 (some centres undefined) [CHK1 compound 1]
146 | 290 | CC(C)(C)c1ccc(C(=O)NC(=O)Nc2cccc3ccccc23)cc1[N+](=O)O [CHK1 compound 3]
